Source: the supplement of paper PMC7108870

How the values were obtained:
HEK293sieSTAT3(wt) [1] = assay: drug sensitivity score (DSS), viability CellTiter-Glo (DSS (dimensionless)); higher = more growth inhibition; extreme values may be limits of the assay; conditions: 72 h; STAT3 variant: wild type
In short: (§1)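 For 72 hours at 37°C and 5% CO2, HEK293 cells overexpressing wild-type or mutant STAT3 and carrying a STAT3-dependent luciferase reporter were cultured on compounds at 5 concentrations in 10-fold dilutions. CellTox Green and then CellTiter-Glo signals were read, normalised to negative and positive control wells, and converted in Breeze into a drug sensitivity score based on dose-response curve area. Values are from one representative of two experiments.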

HEK293sieSTAT3(Y640F) [2] = assay: as above; conditions: 72 h; STAT3 variant: Y640F (constitutively active)
In short: as §1

HEK293sieSTAT3(wt) [3] = assay: drug sensitivity score (DSS), cytotoxicity CellTox Green (DSS (dimensionless)); higher = more cytotoxic; extreme values may be limits of the assay; conditions: 72 h; STAT3 variant: wild type
In short: as §1

HEK293sieSTAT3(Y640F) [4] = assay: as above; conditions: 72 h; STAT3 variant: Y640F (constitutively active)
In short: as §1

Row | Compound | drug sensitivity score (HEK293sieSTAT3(wt) [1]) | drug sensitivity score (HEK293sieSTAT3(Y640F) [2]) | drug sensitivity score (HEK293sieSTAT3(wt) [3]) | drug sensitivity score (HEK293sieSTAT3(Y640F) [4])
1 | Cc1cc([C@@H](C)Nc2ccccc2C(=O)O)c2nc(N3CCOCC3)cc(=O)n2c1 [AZD-6482] (top concentration tested 2500 nM) | 1.97 | 1.08 | 0.89 | 0
2 | C[C@@H](Nc1cc(F)cc(F)c1)c1cc(C(=O)N(C)C)cc2c(=O)cc(N3CCOCC3)oc12 [AZD-8186] (top concentration tested 1000 nM) | 0.9 | 0 | 0 | 0
3 | Cc1cc(C(=O)NOCCO)c(Nc2ccc(I)cc2F)n(C)c1=O [AZD-8330] (top concentration tested 10000 nM) | 0.01 | 7.16 | 0 | 0
4 | CCN1CCN(Cc2ccc(Nc3ncc(F)c(-c4cc(F)c5nc(C)n(C(C)C)c5c4)n3)nc2)CC1 [Abemaciclib] (top concentration tested 2500 nM) | 0.4 | 0.98 | 0 | 0
5 | CN(C)Cc1c(C(=O)NCCOc2ccc(C(=O)NO)cc2)oc2ccccc12 [Abexinostat] (top concentration tested 10000 nM) | 22.3 | 22.9 | 17.5 | 10.7
6 | C[C@]12CC[C@H](O)CC1=CC[C@@H]1[C@@H]2CC[C@]2(C)C(c3cccnc3)=CC[C@@H]12 [Abiraterone] (top concentration tested 5000 nM) | 1.01 | 2.65 | 0 | 0
7 | CN(C)C/C=C/C(=O)Nc1cc2c(Nc3ccc(F)c(Cl)c3)ncnc2cc1O[C@H]1CCOC1 [Afatinib] (top concentration tested 1000 nM) | 1.06 | 0.98 | 0 | 0
8 | Cn1ncc(Cl)c1-c1cc(C(=O)N[C@H](CN)Cc2cccc(F)c2)sc1Cl [Afuresertib] (top concentration tested 1000 nM) | 9.38 | 6.74 | 0 | 0
9 | COc1cccc2c1C(=O)c1c(O)c3c(c(O)c1C2=O)C[C@@](O)(/C(CO)=N/NC(=O)CCCCCN1C(=O)C=CC1=O)C[C@@H]3O[C@H]1C[C@H](N)[C@H](O)[C@H](C)O1 [Aldoxorubicin] (top concentration tested 1000 nM) | 21.1 | 19.7 | 0 | 0
10 | CCc1cc2c(cc1N1CCC(N3CCOCC3)CC1)C(C)(C)c1[nH]c3cc(C#N)ccc3c1C2=O [Alectinib] (top concentration tested 1000 nM) | 4.73 | 3.02 | 2.75 | 0
11 | COc1cc(Nc2ncc3c(n2)-c2ccc(Cl)cc2C(c2c(F)cccc2OC)=NC3)ccc1C(=O)O [Alisertib] (top concentration tested 10000 nM) | 12.1 | 9.16 | 8.65 | 0
12 | Oc1ncnc2[nH]ncc12 [Allopurinol] (top concentration tested 10000 nM) | 0.7 | 3.38 | 0 | 0
13 | Cc1nc(NC(=O)N2CCC[C@H]2C(N)=O)sc1-c1ccnc(C(C)(C)C(F)(F)F)c1 [Alpelisib] (top concentration tested 2500 nM) | 3.18 | 0.49 | 0 | 0
14 | CN(C)c1nc(N(C)C)nc(N(C)C)n1 [Altretamine] (top concentration tested 10000 nM) | 0 | 0 | 0 | 0
15 | CO[C@H]1/C=C\C=C(/C)C(=O)NC2=CC(=O)C(NCCN(C)C)=C(C[C@@H](C)C[C@H](OC)[C@H](O)[C@@H](C)/C=C(\C)[C@@H]1OC(N)=O)C2=O [Alvespimycin] (top concentration tested 1000 nM) | 16.6 | 14.9 | 16.2 | 7.84
16 | CN1CC[C@H](c2c(O)cc(O)c3c(=O)cc(-c4ccccc4Cl)oc23)[C@H](O)C1 [Alvocidib] (top concentration tested 10000 nM) | 24.4 | 20.1 | 17.1 | 9.09
17 | CCC1(c2ccc(N)cc2)CCC(=O)NC1=O (configuration not stated) [Aminoglutethimide] (top concentration tested 10000 nM) | 0.06 | 0.16 | 0 | 0
18 | CN(C)CCN1C(=O)c2cccc3cc(N)cc(c23)C1=O [Amonafide] (top concentration tested 10000 nM) | 15 | 11.3 | 7.09 | 1.87
19 | COc1cc(NS(C)(=O)=O)ccc1Nc1c2ccccc2nc2ccccc12 [Amsacrine] (top concentration tested 10000 nM) | 26.9 | 25.2 | 11.1 | 6.68
20 | S=C(NCc1ccc2c(c1)OCO2)N1CCN(c2ncnc3c2oc2ccccc23)CC1 [Amuvatinib] (top concentration tested 10000 nM) | 5.71 | 5.74 | 8.39 | 3.08
21 | O=C1CN2Cc3c(ccc(Cl)c3Cl)N=C2N1 [Anagrelide] (top concentration tested 10000 nM) | 0.64 | 0.64 | 0.62 | 0.01
22 | CC(C)(C#N)c1cc(Cn2cncn2)cc(C(C)(C)C#N)c1 [Anastrozole] (top concentration tested 10000 nM) | 0 | 0.01 | 0 | 0

Row | Compound | drug sensitivity score (HEK293sieSTAT3(wt) [1]) | drug sensitivity score (HEK293sieSTAT3(Y640F) [2]) | drug sensitivity score (HEK293sieSTAT3(wt) [3]) | drug sensitivity score (HEK293sieSTAT3(Y640F) [4])
23 | N#CC1(c2ccc(NC(=O)c3cccnc3NCc3ccncc3)cc2)CCCC1 [Apatinib] (top concentration tested 10000 nM) | 0 | 0.11 | 0.3 | 0.2
24 | Cc1c(CN2CCN(C(=O)[C@H](C)O)CC2)sc2c(N3CCOCC3)nc(-c3cnc(N)nc3)nc12 [Apitolisib] (top concentration tested 10000 nM) | 19.8 | 23.8 | 8.67 | 0
25 | CC(C)c1c(C(=O)Nc2ccccc2)c(-c2ccccc2)c(-c2ccc(F)cc2)n1CC[C@@H](O)C[C@@H](O)CC(=O)O [Atorvastatin] (top concentration tested 10000 nM) | 8.29 | 6.61 | 6.93 | 9.06
26 | CC(=O)OC[C@H]1O[C@@H]([S-])[C@H](OC(C)=O)[C@@H](OC(C)=O)[C@@H]1OC(C)=O.CCP(CC)CC.[Au+] [Auranofin] (top concentration tested 2500 nM) | 8.14 | 9.25 | 9.45 | 6.36
27 | CNC(=O)c1ccccc1Sc1ccc2c(/C=C/c3ccccn3)n[nH]c2c1 [Axitinib] (top concentration tested 10000 nM) | 8.07 | 5.84 | 7.83 | 4.38
28 | Nc1ncn([C@@H]2O[C@H](CO)[C@@H](O)[C@H]2O)c(=O)n1 [Azacitidine] (top concentration tested 10000 nM) | 2.72 | 2.86 | 0.87 | 0
29 | Cc1cc(-c2nc(-c3ccc(OC(F)(F)F)cc3)no2)nn1Cc1ccnc(N2CCN(C3CC3)CC2)c1 [BAY 87-2243] (top concentration tested 1000 nM) | 12.5 | 12.6 | 0 | 0
30 | Nc1nc(Nc2ccc3c(c2)CC[C@@H](N2CCCC2)CC3)nn1-c1cc2c(nn1)-c1ccccc1CCC2 [BGB324] (top concentration tested 10000 nM) | 12 | 10.2 | 11.9 | 6.14
31 | CC[C@@H]1C(=O)N(C)c2cnc(Nc3ccc(C(=O)NC4CCN(C)CC4)cc3OC)nc2N1C1CCCC1 [BI 2536] (top concentration tested 1000 nM) | 24.7 | 23.5 | 20.1 | 2.98
32 | COc1c(C)cnc(Cn2cnc3c(Cl)nc(N)nc32)c1C [BIIB021] (top concentration tested 10000 nM) | 27.9 | 24.6 | 24.2 | 9.95
33 | O=C(Nc1cccc(Nc2ncc(Br)c(NCCc3cnc[nH]3)n2)c1)N1CCCC1 [BX-912] (top concentration tested 10000 nM) | 6.67 | 5.58 | 0 | 0
34 | Cc1ccc(NC(=O)c2ccc(CN3CC[C@H](N(C)C)C3)c(C(F)(F)F)c2)cc1Nc1nccc(-c2cncnc2)n1 [Bafetinib] (top concentration tested 1000 nM) | 2.29 | 1.34 | 0 | 0
35 | CCS(=O)(=O)N1CC(CC#N)(n2cc(-c3ncnc4[nH]ccc34)cn2)C1 [Baricitinib] (top concentration tested 2500 nM) | 1.02 | 2.8 | 0.42 | 0
36 | O=C(/C=C/c1cccc(S(=O)(=O)Nc2ccccc2)c1)NO [Belinostat] (top concentration tested 10000 nM) | 13.1 | 16.9 | 8.71 | 8.83
37 | Cn1c(CCCC(=O)O)nc2cc(N(CCCl)CCCl)ccc21 [Bendamustine] (top concentration tested 10000 nM) | 3.94 | 0.53 | 0 | 0
38 | N#CC(c1ccnc(OCc2ccc(CN3CCOCC3)cc2)n1)c1nc2ccccc2s1 (configuration not stated) [Bentamapimod] (top concentration tested 10000 nM) | 8.85 | 5.3 | 0 | 0.96
39 | C=C(c1ccc(C(=O)O)cc1)c1cc2c(cc1C)C(C)(C)CCC2(C)C [Bexarotene] (top concentration tested 10000 nM) | 3.75 | 2 | 0 | 0
40 | CC(O)(CS(=O)(=O)c1ccc(F)cc1)C(=O)Nc1ccc(C#N)c(C(F)(F)F)c1 (configuration not stated) [Bicalutamide] (top concentration tested 10000 nM) | 4.54 | 3.98 | 0 | 0
41 | CCNC(=O)CCC/C=C\C[C@@H]1[C@@H](/C=C/[C@@H](O)CCc2ccccc2)[C@H](O)C[C@@H]1O [Bimatoprost] (top concentration tested 5500 nM) | 0 | 0 | 0 | 0
42 | Cn1cnc2c(F)c(Nc3ccc(Br)cc3F)c(C(=O)NOCCO)cc21 [Binimetinib] (top concentration tested 1000 nM) | 0.52 | 1.87 | 0 | 0
43 | CC[C@H](NC(=O)[C@H](C)NC)C(=O)N1C[C@@H](O)C[C@H]1Cc1c(-c2[nH]c3cc(F)ccc3c2C[C@@H]2C[C@H](O)CN2C(=O)[C@H](CC)NC(=O)[C@H](C)NC)[nH]c2cc(F)ccc12 [Birinapant] (top concentration tested 1000 nM) | 15.6 | 7.4 | 30.4 | 19.5
